Measured values reported in ChEMBL document CHEMBL1136896, “Synthesis and biological evaluation of arylhydrazinocyanoacrylates and N-aryl pyrazolecarboxylates” (2009).

The molecules below were run on Digitaria sanguinalis (assay: Herbicidal activity against Digitaria sanguinalis (L.) Scop. at 1.5 kg/hectare administered preemergence of first true leaf measured after 10 days). Settings: pre-emergence, 240 h.
Type: functional
`CCOCCOC(=O)/C(C#N)=C(/CC)NNc1c(Cl)cc(Cl)cc1Cl` showed an inhibition at 1500 g/ha of 0%. `CCOCCOC(=O)c1c(SC)nn(-c2ccc([N+](=O)[O-])cc2)c1N` showed an inhibition at 1500 g/ha of 0%. `CCOCCOC(=O)c1c(CC)nn(-c2ccc(Cl)cc2)c1N` gave an inhibition at 1500 g/ha of 0%. Work on `CCOCCOC(=O)c1c(C(C)C)nn(-c2ccc(C)cc2)c1N` yielded an inhibition at 1500 g/ha of 0%.

Each molecule was assayed on Alternaria solani (assay: Fungicidal activity against Alternaria solani assessed as inhibition of mycelium growth at 50 mg/L after 72 hrs). Settings: not given.
Type: functional
`CCOCCOC(=O)/C(C#N)=C(/CC)NNc1c(Cl)cc(Cl)cc1Cl` showed an inhibition at 50 µg/mL of 25%. `CCOCCOC(=O)c1c(SC)nn(-c2ccc([N+](=O)[O-])cc2)c1N` showed an inhibition at 50 µg/mL of 8%. `CCOCCOC(=O)c1c(CC)nn(-c2ccc(Cl)cc2)c1N` was tested, and the inhibition at 50 µg/mL was 0%. In the case of `CCOCCOC(=O)c1c(C(C)C)nn(-c2ccc(C)cc2)c1N`, the inhibition at 50 µg/mL is reported as 12%.

What follows are molecules tested on Brassica napus (assay: Herbicidal activity against Brassica napus L. at 1.5 kg/hectare administered preemergence of first true leaf measured after 10 days). Settings: pre-emergence, 240 h.
Type: functional
`CCOCCOC(=O)/C(C#N)=C(/CC)NNc1c(Cl)cc(Cl)cc1Cl` was tested, and the inhibition at 1500 g/ha was 0%. `CCOCCOC(=O)c1c(SC)nn(-c2ccc([N+](=O)[O-])cc2)c1N` gave an inhibition at 1500 g/ha of 0%. Work on `CCOCCOC(=O)c1c(CC)nn(-c2ccc(Cl)cc2)c1N` yielded an inhibition at 1500 g/ha of 0%. For `CCOCCOC(=O)c1c(C(C)C)nn(-c2ccc(C)cc2)c1N`, the inhibition at 1500 g/ha was 15%.

Each molecule was assayed on Medicago sativa (assay: Herbicidal activity against Medicago sativa at 1.5 kg/hectare administered postemergence of first true leaf measured after 10 days). Settings: post-emergence, 240 h.
Type: functional
With `CCOCCOC(=O)/C(C#N)=C(/CC)NNc1c(Cl)cc(Cl)cc1Cl` the inhibition at 1500 g/ha was 5.6%. Work on `CCOCCOC(=O)c1c(SC)nn(-c2ccc([N+](=O)[O-])cc2)c1N` yielded an inhibition at 1500 g/ha of 38.3%. Work on `CCOCCOC(=O)c1c(CC)nn(-c2ccc(Cl)cc2)c1N` yielded an inhibition at 1500 g/ha of 0%. `CCOCCOC(=O)c1c(C(C)C)nn(-c2ccc(C)cc2)c1N` showed an inhibition at 1500 g/ha of 20%.

Each molecule was assayed on Bel-7402 (assay: Antitumor activity against human Bel7402 cells at 10 uM/L after 72 hrs by MTT assay). Settings: Bel-7402, 72 h.
Type: functional
`CCOCCOC(=O)/C(C#N)=C(/CC)NNc1c(Cl)cc(Cl)cc1Cl` showed an inhibition at 10 µM of 3.9%. Molecule `CCOCCOC(=O)c1c(SC)nn(-c2ccc([N+](=O)[O-])cc2)c1N` has an inhibition at 10 µM of 0%.

Each molecule was assayed on HL-60 (assay: Antitumor activity against human HL60 cells at 100 uM/L after 72 hrs by MTT assay). Settings: HL-60, 72 h.
Type: functional
`CCOCCOC(=O)/C(C#N)=C(/CC)NNc1c(Cl)cc(Cl)cc1Cl` showed an inhibition at 100 µM of 36.6%. Work on `CCOCCOC(=O)c1c(SC)nn(-c2ccc([N+](=O)[O-])cc2)c1N` yielded an inhibition at 100 µM of 22.3%.

What follows are molecules tested on Botryosphaeria berengeriana (assay: Fungicidal activity against Physalospora pyricola assessed as inhibition of mycelium growth at 50 mg/L after 72 hrs). Settings: not given.
Type: functional
`CCOCCOC(=O)/C(C#N)=C(/CC)NNc1c(Cl)cc(Cl)cc1Cl` showed an inhibition at 50 µg/mL of 46.7%. In the case of `CCOCCOC(=O)c1c(SC)nn(-c2ccc([N+](=O)[O-])cc2)c1N`, the inhibition at 50 µg/mL is reported as 13.3%. `CCOCCOC(=O)c1c(CC)nn(-c2ccc(Cl)cc2)c1N` showed an inhibition at 50 µg/mL of 38.7%. `CCOCCOC(=O)c1c(C(C)C)nn(-c2ccc(C)cc2)c1N` gave an inhibition at 50 µg/mL of 13.3%.

What follows are molecules tested on Digitaria sanguinalis (assay: Herbicidal activity against Digitaria sanguinalis at 1.5 kg/hectare administered postemergence of first true leaf measured after 10 days). Settings: post-emergence, 240 h.
Type: functional
`CCOCCOC(=O)/C(C#N)=C(/CC)NNc1c(Cl)cc(Cl)cc1Cl` was tested, and the inhibition at 1500 g/ha was 1.8%. Work on `CCOCCOC(=O)c1c(SC)nn(-c2ccc([N+](=O)[O-])cc2)c1N` yielded an inhibition at 1500 g/ha of 0%. `CCOCCOC(=O)c1c(CC)nn(-c2ccc(Cl)cc2)c1N` was tested, and the inhibition at 1500 g/ha was 0%. `CCOCCOC(=O)c1c(C(C)C)nn(-c2ccc(C)cc2)c1N` showed an inhibition at 1500 g/ha of 0%.

What follows are molecules tested on Cladosporium cucumerinum (assay: Fungicidal activity against Cladosporium cucumerinum assessed as inhibition of mycelium growth at 50 mg/L after 72 hrs). Settings: not given.
Type: functional
For `CCOCCOC(=O)/C(C#N)=C(/CC)NNc1c(Cl)cc(Cl)cc1Cl`, the inhibition at 50 µg/mL was 22.2%. Work on `CCOCCOC(=O)c1c(SC)nn(-c2ccc([N+](=O)[O-])cc2)c1N` yielded an inhibition at 50 µg/mL of 12.7%. In the case of `CCOCCOC(=O)c1c(CC)nn(-c2ccc(Cl)cc2)c1N`, the inhibition at 50 µg/mL is reported as 14.5%. Molecule `CCOCCOC(=O)c1c(C(C)C)nn(-c2ccc(C)cc2)c1N` has an inhibition at 50 µg/mL of 40%.

These molecules were tested on Medicago sativa (assay: Herbicidal activity against Medicago sativa at 1.5 kg/hectare administered preemergence of first true leaf measured after 10 days). Settings: pre-emergence, 240 h.
Type: functional
For `CCOCCOC(=O)/C(C#N)=C(/CC)NNc1c(Cl)cc(Cl)cc1Cl`, the inhibition at 1500 g/ha was 0%. For `CCOCCOC(=O)c1c(SC)nn(-c2ccc([N+](=O)[O-])cc2)c1N`, the inhibition at 1500 g/ha was 0%. For `CCOCCOC(=O)c1c(CC)nn(-c2ccc(Cl)cc2)c1N`, the inhibition at 1500 g/ha was 0%. `CCOCCOC(=O)c1c(C(C)C)nn(-c2ccc(C)cc2)c1N` was tested, and the inhibition at 1500 g/ha was 0%.

These molecules were tested on Amaranthus retroflexus (assay: Herbicidal activity against Amaranthus retroflexus at 1.5 kg/hectare administered preemergence of first true leaf measured after 10 days). Settings: pre-emergence, 240 h.
Type: functional
In the case of `CCOCCOC(=O)/C(C#N)=C(/CC)NNc1c(Cl)cc(Cl)cc1Cl`, the inhibition at 1500 g/ha is reported as 8.8%. `CCOCCOC(=O)c1c(SC)nn(-c2ccc([N+](=O)[O-])cc2)c1N` gave an inhibition at 1500 g/ha of 0%. `CCOCCOC(=O)c1c(CC)nn(-c2ccc(Cl)cc2)c1N` was tested, and the inhibition at 1500 g/ha was 0%. Work on `CCOCCOC(=O)c1c(C(C)C)nn(-c2ccc(C)cc2)c1N` yielded an inhibition at 1500 g/ha of 0%.

These molecules were tested on Mycosphaerella arachidis (assay: Fungicidal activity against Cercospora arachidicola assessed as inhibition of mycelium growth at 50 mg/L after 72 hrs). Settings: not given.
Type: functional
For `CCOCCOC(=O)/C(C#N)=C(/CC)NNc1c(Cl)cc(Cl)cc1Cl`, the inhibition at 50 µg/mL was 15.5%. `CCOCCOC(=O)c1c(SC)nn(-c2ccc([N+](=O)[O-])cc2)c1N` was tested, and the inhibition at 50 µg/mL was 11.8%. With `CCOCCOC(=O)c1c(CC)nn(-c2ccc(Cl)cc2)c1N` the inhibition at 50 µg/mL was 41.2%. In the case of `CCOCCOC(=O)c1c(C(C)C)nn(-c2ccc(C)cc2)c1N`, the inhibition at 50 µg/mL is reported as 20.6%.

The molecules below were run on Brassica napus (assay: Herbicidal activity against Brassica napus at 1.5 kg/hectare administered postemergence of first true leaf measured after 10 days). Settings: post-emergence, 240 h.
Type: functional
Molecule `CCOCCOC(=O)/C(C#N)=C(/CC)NNc1c(Cl)cc(Cl)cc1Cl` has an inhibition at 1500 g/ha of 0%. In the case of `CCOCCOC(=O)c1c(SC)nn(-c2ccc([N+](=O)[O-])cc2)c1N`, the inhibition at 1500 g/ha is reported as 0%. For `CCOCCOC(=O)c1c(CC)nn(-c2ccc(Cl)cc2)c1N`, the inhibition at 1500 g/ha was 0%. Molecule `CCOCCOC(=O)c1c(C(C)C)nn(-c2ccc(C)cc2)c1N` has an inhibition at 1500 g/ha of 40.7%.

These molecules were tested on HL-60 (assay: Antitumor activity against human HL60 cells at 1 uM/L after 72 hrs by MTT assay). Settings: HL-60, 72 h.
Type: functional
For `CCOCCOC(=O)/C(C#N)=C(/CC)NNc1c(Cl)cc(Cl)cc1Cl`, the inhibition at 1 µM was 2.5%. For `CCOCCOC(=O)c1c(SC)nn(-c2ccc([N+](=O)[O-])cc2)c1N`, the inhibition at 1 µM was 2.4%.

These molecules were tested on Fusarium graminearum (assay: Fungicidal activity against Gibberella zeae assessed as inhibition of mycelium growth at 50 mg/L after 72 hrs). Settings: not given.
Type: functional
`CCOCCOC(=O)/C(C#N)=C(/CC)NNc1c(Cl)cc(Cl)cc1Cl` showed an inhibition at 50 µg/mL of 19.2%. Molecule `CCOCCOC(=O)c1c(SC)nn(-c2ccc([N+](=O)[O-])cc2)c1N` has an inhibition at 50 µg/mL of 51.1%. With `CCOCCOC(=O)c1c(CC)nn(-c2ccc(Cl)cc2)c1N` the inhibition at 50 µg/mL was 53.3%. Work on `CCOCCOC(=O)c1c(C(C)C)nn(-c2ccc(C)cc2)c1N` yielded an inhibition at 50 µg/mL of 51.1%.

Each molecule was assayed on Bel-7402 (assay: Antitumor activity against human Bel7402 cells at 1 uM/L after 72 hrs by MTT assay). Settings: Bel-7402, 72 h.
Type: functional
Work on `CCOCCOC(=O)/C(C#N)=C(/CC)NNc1c(Cl)cc(Cl)cc1Cl` yielded an inhibition at 1 µM of 0%. With `CCOCCOC(=O)c1c(SC)nn(-c2ccc([N+](=O)[O-])cc2)c1N` the inhibition at 1 µM was 5.5%.

Each molecule was assayed on Amaranthus retroflexus (assay: Herbicidal activity against Amaranthus retroflexus at 1.5 kg/hectare administered postemergence of first true leaf measured after 10 days). Settings: post-emergence, 240 h.
Type: functional
For `CCOCCOC(=O)/C(C#N)=C(/CC)NNc1c(Cl)cc(Cl)cc1Cl`, the inhibition at 1500 g/ha was 13.3%. For `CCOCCOC(=O)c1c(SC)nn(-c2ccc([N+](=O)[O-])cc2)c1N`, the inhibition at 1500 g/ha was 0%. Work on `CCOCCOC(=O)c1c(CC)nn(-c2ccc(Cl)cc2)c1N` yielded an inhibition at 1500 g/ha of 0%. In the case of `CCOCCOC(=O)c1c(C(C)C)nn(-c2ccc(C)cc2)c1N`, the inhibition at 1500 g/ha is reported as 0%.

What follows are molecules tested on HL-60 (assay: Antitumor activity against human HL60 cells at 1000 uM/L after 72 hrs by MTT assay). Settings: HL-60, 72 h.
Type: functional
For `CCOCCOC(=O)/C(C#N)=C(/CC)NNc1c(Cl)cc(Cl)cc1Cl`, the inhibition at 1000 µM was 84.3%. `CCOCCOC(=O)c1c(SC)nn(-c2ccc([N+](=O)[O-])cc2)c1N` gave an inhibition at 1000 µM of 28.5%.

These molecules were tested on Bel-7402 (assay: Antitumor activity against human Bel7402 cells at 1000 uM/L after 72 hrs by MTT assay). Settings: Bel-7402, 72 h.
Type: functional
`CCOCCOC(=O)/C(C#N)=C(/CC)NNc1c(Cl)cc(Cl)cc1Cl` was tested, and the inhibition at 1000 µM was 95.9%. In the case of `CCOCCOC(=O)c1c(SC)nn(-c2ccc([N+](=O)[O-])cc2)c1N`, the inhibition at 1000 µM is reported as 48.4%.

These molecules were tested on Bel-7402 (assay: Antitumor activity against human Bel7402 cells at 100 uM/L after 72 hrs by MTT assay). Settings: Bel-7402, 72 h.
Type: functional
Work on `CCOCCOC(=O)/C(C#N)=C(/CC)NNc1c(Cl)cc(Cl)cc1Cl` yielded an inhibition at 100 µM of 3.6%. Molecule `CCOCCOC(=O)c1c(SC)nn(-c2ccc([N+](=O)[O-])cc2)c1N` has an inhibition at 100 µM of 4.2%.

These molecules were tested on HL-60 (assay: Antitumor activity against human HL60 cells at 10 uM/L after 72 hrs by MTT assay). Settings: HL-60, 72 h.
Type: functional
Molecule `CCOCCOC(=O)/C(C#N)=C(/CC)NNc1c(Cl)cc(Cl)cc1Cl` has an inhibition at 10 µM of 23.1%. In the case of `CCOCCOC(=O)c1c(SC)nn(-c2ccc([N+](=O)[O-])cc2)c1N`, the inhibition at 10 µM is reported as 0%.

The molecules below were run on Cucumis sativus (assay: Growth regulatory activity in cucumber assessed as root growth at 10 mg/L incubated in dark for 5 days). Settings: not given.
Type: functional
With `CCOCCOC(=O)/C(C#N)=C(/CC)NNc1c(Cl)cc(Cl)cc1Cl` the Activity was -16.5%. For `CCOCCOC(=O)c1c(SC)nn(-c2ccc([N+](=O)[O-])cc2)c1N`, the Activity was 54.4%. Molecule `CCOCCOC(=O)c1c(CC)nn(-c2ccc(Cl)cc2)c1N` has an Activity of 111.3%. Work on `CCOCCOC(=O)c1c(C(C)C)nn(-c2ccc(C)cc2)c1N` yielded an Activity of 21.9%.
